In general, pIC50 refers to −log10 of the IC50, conventionally taken in molar units.

pIC50: −log10 of the molar value.

The source of these data is US12018021B2 (UCB Biopharma SRL, priority 2018, dated 2024).

Chain of IgE-Tb / FcεRIα-Y131A-AF488 (P01854 1-427 limits assumed, stated change not applied): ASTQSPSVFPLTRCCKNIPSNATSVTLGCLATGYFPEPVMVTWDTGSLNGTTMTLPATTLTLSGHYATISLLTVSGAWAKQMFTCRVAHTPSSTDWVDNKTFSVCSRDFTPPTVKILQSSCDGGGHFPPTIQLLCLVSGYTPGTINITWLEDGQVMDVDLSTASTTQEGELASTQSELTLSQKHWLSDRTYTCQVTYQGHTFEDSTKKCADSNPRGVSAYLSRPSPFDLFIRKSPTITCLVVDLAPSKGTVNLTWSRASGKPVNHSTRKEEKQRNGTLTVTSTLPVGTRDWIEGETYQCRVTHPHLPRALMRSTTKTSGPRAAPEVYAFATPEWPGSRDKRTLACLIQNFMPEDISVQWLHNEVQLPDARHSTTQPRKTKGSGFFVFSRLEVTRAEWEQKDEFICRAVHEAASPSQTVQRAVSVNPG

The assay has as its target IgE-Tb / FcεRIα-Y131A-AF488 (Homo sapiens, UniProt P01854). As to the kind of experiment: IgE-Tb / FcεRIα-Y131A-AF488 FRET assay (protocol for examples 1 to 233). It is filed as binding. Particulars: examples 1 to 233: 5 nM IgE-Tb, 25 nM FcεRIα-Y131A-AF488, incubated 2 hours at room temperature; read-out: Y131A FRET IC50 range. The procedure, abridged: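 Compounds (top final concentration usually 10 μM, 3-fold, 10 points, 2% DMSO) incubated 2 h at room temperature with IgE-Tb (5 nM) and FcεRIα-Y131A-AF488 (25 nM). Background from 200 nM unlabelled receptor subtracted; FRET ratio 520/495 nm after 330 nm excitation gave percent inhibition, fitted four-parameter for IC50.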
As to `CCNC(=O)C1CCCc2c1sc(NC(=O)C1CC1)c2C(=O)NCC1CC1` (stereo not drawn) [Example 98, 2-(Cyclopropanecarbonylamino)-N3-(cyclopropylmethyl)-N7-ethyl-4,5,6,7-tetrahydrobenzothiophene-3,7-dicarboxamide], the negative-log IC50 (pIC50) was 4.30 to 5.00.

Regarding `O=C(NCC1CC1)c1c(NC(=O)C2CC2)sc2c1CC(c1cc[nH]n1)CC2` (stereo not drawn) [Example 100, 2-(Cyclopropanecarbonylamino)-N-(cyclopropylmethyl)-5-(1H-pyrazol-3-yl)-4,5,6,7-tetrahydrobenzothiophene-3-carboxamide], the pIC50 was > 6.00.

Take `CCOC(=O)c1c(NC(=O)C2CC2)sc2c1CCCC2O` (stereo not drawn) [Example 103, Ethyl 2-(cyclopropanecarbonylamino)-7-hydroxy-4,5,6,7-tetrahydrobenzothiophene-3-carboxylate]: the negative-log IC50 (pIC50) is 4.30 to 5.00.

Turning to `N#Cc1ncn([C@H]2CCc3sc(NC(=O)C4CC4)c(C(=O)NCC4CC4)c3C2)c1N` [Example 104, (5S)-5-(5-Amino-4-cyano-imidazol-1-yl)-2-(cyclopropanecarbonylamino)-N-(cyclopropylmethyl)-4,5,6,7-tetrahydrobenzothiophene-3-carboxamide], the pIC50 was > 6.00.

Turning to `Cc1cc(Nc2nncn2[C@H]2CCc3sc(NC(=O)C4CC4)c(C(=O)NCC4CC4)c3C2)n(C)n1` [Example 106, (5S)-2-(Cyclopropanecarbonylamino)-N-(cyclopropylmethyl)-5-[3-[(2,5-dimethylpyrazol-3-yl)amino]-1,2,4-triazol-4-yl]-4,5,6,7-tetrahydrobenzothiophene-3-carboxamide], the pIC50 was > 6.00.

On to `Cc1cc(-n2cnnc2N[C@H]2CCc3sc(NC(=O)C4CC4)c(C(=O)NCC4CC4)c3C2)n(C)n1` [Example 107, (5S)-2-(Cyclopropanecarbonylamino)-N-(cyclopropylmethyl)-5-[[4-(2,5-dimethylpyrazol-3-yl)-1,2,4-triazol-3-yl]amino]-4,5,6,7-tetrahydrobenzothiophene-3-carboxamide], for which the pIC50 was 5.00 to 6.00.

In the case of `Cc1cc(Nc2nncn2[C@H]2CCc3sc(NC(=O)C4CC4)c(C(=O)NCC(C)C)c3C2)n(C)n1` [Example 108, (5S)-2-(Cyclopropanecarbonylamino)-5-[3-[(2,5-dimethylpyrazol-3-yl)amino]-1,2,4-triazol-4-yl]-N-isobutyl-4,5,6,7-tetrahydrobenzothiophene-3-carboxamide], the pIC50 is > 6.00.

Take `NC1CCc2sc(NC(=O)C3CC3)c(C(=O)NCC3CC3)c2C1` (stereo not drawn) [Example 109, 5-Amino-2-(cyclopropanecarbonylamino)-N-(cyclopropylmethyl)-4,5,6,7-tetrahydrobenzothiophene-3-carboxamide]: the negative logarithm of the IC50 (pIC50) was 4.30 to 5.00.

Consider `N#CN=C(Nc1ccccc1)NC1CCc2sc(NC(=O)C3CC3)c(C(=O)NCC3CC3)c2C1` (stereo not drawn) [Example 110, 5-[[N′-Cyano-N-phenyl-carbamimidoyl]amino]-2-(cyclopropanecarbonylamino)-N-(cyclopropylmethyl)-4,5,6,7-tetrahydrobenzothiophene-3-carboxamide], for which the pIC50 was > 6.00.

With `CC1(CNc2nncn2[C@H]2CCc3sc(NC(=O)C4CC4)c(C(=O)NCC4CC4)c3C2)CC1` [Example 112, (5S)-2-(Cyclopropanecarbonylamino)-N-(cyclopropylmethyl)-5-[3-[(1-methylcyclopropyl)methylamino]-1,2,4-triazol-4-yl]-4,5,6,7-tetrahydrobenzothiophene-3-carboxamide], the pIC50 is > 6.00.

On to `CC(=O)Nc1cncn1[C@H]1CCc2sc(NC(=O)C3CC3)c(C(=O)NCC3CC3)c2C1` [Example 113, (5S)-5-(5-Acetamidoimidazol-1-yl)-2-(cyclopropanecarbonylamino)-N-(cyclopropylmethyl)-4,5,6,7-tetrahydrobenzothiophene-3-carboxamide], for which the negative logarithm of the IC50 (pIC50) is > 6.00.

Turning to `O=C(NCC1CC1)c1c(NC(=O)C2CC2)sc2c1C[C@@H](n1cnnc1Nc1ccncc1)CC2` [Example 115, (5S)-2-(Cyclopropanecarbonylamino)-N-(cyclopropylmethyl)-5-[3-(4-pyridylamino)-1,2,4-triazo-4-yl]-4,5,6,7-tetrahydrobenzothiophene-3-carboxamide], the pIC50 was > 6.00.

For `COc1ccc(NC(=NC#N)NC2CCc3sc(NC(=O)C4CC4)c(C(=O)NCC4CC4)c3C2)cc1OC` (stereo not drawn) [Example 116, 5-[[N′-Cyano-N-(3,4-dimethoxyphenyl)carbamimidoyl]amino]-2-(cyclopropanecarbonylamino)-N-(cyclopropylmethyl)-4,5,6,7-tetrahydrobenzothiophene-3-carboxamide], the pIC50 was > 6.00.

For the molecule `CCOC(=O)c1ncn([C@H]2CCc3sc(NC(=O)C4CC4)c(C(=O)NCC4CC4)c3C2)c1N` [Example 117, Ethyl 5-amino-1-[(5S)-2-(cyclopropanecarbonylamino)-3-(cyclopropylmethylcarbamoyl)-4,5,6,7-tetrahydrobenzothiophen-5-yl]imidazole-4-carboxylate], the pIC50 is > 6.00.

With `O=C(NCC1CC1)c1c(NC(=O)C2CC2)sc2c1CC(Nc1noc(=O)[nH]1)CC2` (stereo not drawn) [Example 119, 2-(Cyclopropanecarbonylamino)-N-(cyclopropylmethyl)-5-[(5-oxo-4H-1,2,4-oxadiazol-3-yl)amino]-4,5,6,7-tetrahydrobenzothiophene-3-carboxamide], the pIC50 was > 6.00.

As for `CCNc1c(NC2CCc3sc(NC(=O)C4CC4)c(C(=O)NCC4CC4)c3C2)c(=O)c1=O` (stereo not drawn) [Example 120, 2-(Cyclopropanecarbonylamino)-N-(cyclopropylmethyl)-5-[[2-(ethylamino)-3,4-dioxo-cyclobuten-1-yl]amino]-4,5,6,7-tetrahydrobenzothiophene-3-carboxamide], the pIC50 is > 6.00.

On to `N#CN=C(NCC(F)(F)F)NC1CCc2sc(NC(=O)C3CC3)c(C(=O)NCC3CC3)c2C1` (stereo not drawn) [Example 121, 5-[[N′-cyano-N-(2,2,2-trifluoroethyl)carbamimidoyl]amino]-2-(cyclopropanecarbonylamino)-N-(cyclopropylmethyl)-4,5,6,7-tetrahydrobenzothiophene-3-carboxamide], for which the pIC50 is > 6.00.

Consider `CCNc1nncn1[C@H]1CCc2sc(NC(=O)C3CC3)c(C(=O)NCC3CC3)c2C1` [Example 122, (5S)-2-(cyclopropanecarbonylamino)-N-(cyclopropylmethyl)-5-[3-(ethylamino)-1,2,4-triazol-4-yl]-4,5,6,7-tetrahydrobenzothiophene-3-carboxamide], for which the pIC50 is > 6.00.

With `CCNC(=N[N+](=O)[O-])NC1CCc2sc(NC(=O)C3CC3)c(C(=O)NCC3CC3)c2C1` (stereo not drawn) [Example 123, 2-(cyclopropanecarbonylamino)-N-(cyclopropylmethyl)-5-[(N-ethyl-N′-nitro-carbamimidoyl)amino]-4,5,6,7-tetrahydrobenzothiophene-3-carboxamide], the pIC50 was > 6.00.

Turning to `O=C(NCC1CC1)c1c(NC(=O)C2CC2)sc2c1C[C@@H](n1cnnc1Nc1cccnc1)CC2` [Example 124, (5S)-2-(Cyclopropanecarbonylamino)-N-(cyclopropylmethyl)-5-[3-(3-pyridylamino)-1,2,4-triazol-4-yl]-4,5,6,7-tetrahydrobenzothiophene-3-carboxamide], the negative-log IC50 (pIC50) was > 6.00.

`O=C(NCC1CC1)c1c(NC(=O)C2CC2)sc2c1C[C@@H](n1cnnc1Nc1ccc[n+]([O-])c1)CC2` [Example 125, (5S)-2-(Cyclopropanecarbonylamino)-N-(cyclopropylmethyl)-5-[3-[(1-oxidopyridin-1-ium-3-yl)amino]-1,2,4-triazol-4-yl]-4,5,6,7-tetrahydrobenzothiophene-3-carboxamide]: the pIC50 was > 6.00.

On to `Cc1ccc(NC(=N[N+](=O)[O-])NC2CCc3sc(NC(=O)C4CC4)c(C(=O)NCC4CC4)c3C2)cc1` (stereo not drawn) [Example 126, 2-(cyclopropanecarbonylamino)-N-(cyclopropylmethyl)-5-[[N′-nitro-N-(p-tolyl)carbamimidoyl]amino]-4,5,6,7-tetrahydrobenzothiophene-3-carboxamide], for which the pIC50 was > 6.00.

As for `O=C(NCC1CC1)c1c(NC(=O)C2CC2)sc2c1C[C@@H](n1ccnc1Nc1cccnc1)CC2` [Example 127, (5S)-2-(Cyclopropanecarbonylamino)-N-(cyclopropylmethyl)-5-[2-(3-pyridylamino)imidazol-1-yl]-4,5,6,7-tetrahydrobenzothiophene-3-carboxamide], the pIC50 is > 6.00.

In the case of `O=C(NCC1CC1)c1c(NC(=O)C2CC2)sc2c1C[C@@H](n1cnnc1NCC1CC1)CC2` [Example 130, (5S)-2-(Cyclopropanecarbonylamino)-N-(cyclopropylmethyl)-5-[3-(cyclopropylmethylamino)-1,2,4-triazol-4-yl]-4,5,6,7-tetrahydrobenzothiophene-3-carboxamide], the pIC50 is > 6.00.

On to `Cc1cc(NC(=S)N[C@H]2CCc3sc(NC(=O)C4CC4)c(C(=O)NCC4CC4)c3C2)n(C)n1` [Example 131, (5S)-2-(Cyclopropanecarbonylamino)-N-(cyclopropylmethyl)-5-[(2,5-dimethylpyrazol-3-yl)carbamothioylamino]-4,5,6,7-tetrahydrobenzothiophene-3-carboxamide], for which the negative logarithm of the IC50 (pIC50) was > 6.00.

In the case of `O=C(NCC1CC1)c1c(NC(=O)C2CC2)sc2c1C[C@@H](n1cnnc1Nc1cncnc1)CC2` [Example 132, (5S)-2-(Cyclopropanecarbonylamino)-N-(cyclopropylmethyl)-5-[3-(pyrimidin-5-ylamino)-1,2,4-triazol-4-yl]-4,5,6,7-tetrahydrobenzothiophene-3-carboxamide], the pIC50 is > 6.00.

With `O=C(NCC1CC1)c1c(NC(=O)C2CC2)sc2c1C[C@@H](n1ccnc1NCC1CC1)CC2` [Example 133, (5S)-2-(Cyclopropanecarbonylamino)-N-(cyclopropylmethyl)-5-[2-(cyclopropylmethylamino)imidazol-1-yl]-4,5,6,7-tetrahydrobenzothiophene-3-carboxamide], the pIC50 is > 6.00.
